The record followed here is US9000044B2, “Substituted naphthylacetic acids” (Hoffmann-La Roche Inc., priority 2012, dated 2015).

human CRTH2, sequence (Q9Y5Y4 whole entry): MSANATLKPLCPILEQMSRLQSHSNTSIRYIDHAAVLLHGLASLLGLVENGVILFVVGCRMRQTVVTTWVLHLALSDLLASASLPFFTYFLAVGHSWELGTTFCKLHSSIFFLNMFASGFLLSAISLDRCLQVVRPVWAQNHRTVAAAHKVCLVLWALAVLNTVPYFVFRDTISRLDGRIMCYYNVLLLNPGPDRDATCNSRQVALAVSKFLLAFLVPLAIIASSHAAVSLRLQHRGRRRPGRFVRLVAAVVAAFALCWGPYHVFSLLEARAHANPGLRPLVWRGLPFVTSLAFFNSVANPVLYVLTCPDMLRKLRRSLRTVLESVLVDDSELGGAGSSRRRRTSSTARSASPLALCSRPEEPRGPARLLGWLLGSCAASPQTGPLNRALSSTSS

For this assay, the target named is human CRTH2 (Homo sapiens (Human), UniProt Q9Y5Y4). Put plainly: Calcium Flux Assay Using Fluorometric Imaging Plate Reader (FLIPR). In kind it is cell-based. The settings on record: CHO-K1 cells with G-alpha 16 and human CRTH2; inhibition of DK-PGD2 ligand-induced Ca2+ flux. On the procedure:
Calcium Flux Assay Using Fluorometric Imaging Plate Reader (FLIPR)
Cell Culture Conditions: CHO-K1 cells previously transfected with G-alpha 16 were subsequently transfected with the human CRTH2 receptor and the neomycin resistance gene. Following selection in 800 μg/mL G418 (geneticin), individual clones were assayed for their receptor expression based on staining with an anti human CRTH2 IgG, followed by assaying for their response to 13,14-dihydro-15-keto Prostaglandin D2 (DK-PDG2) (ligand) in the Ca^2+ Flux assay. Positive clones were then cloned by limiting dilution cloning. The transfected cells were cultured in Ham's F-12 medium supplemented with 10% fetal bovine serum, 2 mM glutamine, 100 U/mL penicillin/100 μg/mL streptomycin, 200 μg/mL hygromycin B, and 800 μg/mL G418 (geneticin). Cells were harvested with trypsin-EDTA (trypsin-ethylenediaminetetraacetic acid) and counted using ViaCount® reagent (from Guava Technologies, Inc. which contains two DNA-binding dyes that enable the reagent user to distinguish between viable and non-viable cells). The cell suspension volume was adjusted to 2.5×10^5 cells/mL with complete growth media. Aliquots of 50 μL were dispensed into BD Falcon™ 384 well black/clear microplates (from BD Biosciences, a division of Becton, Dickinson and Company) and the microplates were placed in a 37° C. CO2 incubator overnight. The following day, the microplates were used in the assay.
Loading Buffer containing dye (from the FLIPR® Calcium 3 Assay Kit from Molecular Devices, a division of MDS Analytical Technologies and MDS Inc.) was prepared by dissolving the contents of one bottle into 200 mL Hank's Balanced Salt Solution containing 20 mM HEPES (4-(2-hydroxyethyl)-1-piperazineethanesulfonic acid) and 2.5 mM probenecid. Growth media was removed from the cell plates and 25 μL of Hank's Balanced Salt Solution (HBSS) containing 20 mM HEPES, 0.05% BSA and 2.5 mM probenecid was added to each well followed by 25 μL of diluted dye using a Multidrop dispenser. The plates were then incubated for 1 hour at 37° C.
During the incubation, test compound plates were prepared by adding 90 μL of HBSS/20 mM HEPES/0.005% BSA buffer to the 2 μL of serial diluted compounds. To prepare serial diluted compounds, 20 mM stocks of compounds were dissolved in 100% DMSO. The compound dilution plate was set up as follows: well #1 received 5 μL of compound plus 10 μL of DMSO. Wells 2-10 received 10 μL of DMSO. 5 μL was mixed and transferred from well #1 into well #2. 1:3 serial dilutions were continued out 10 steps. 2 μL of diluted compound was transferred into duplicate wells of a 384 well “assay plate” and then 90 μL of buffer was added.
After incubation, both the cell and “assay plate” plates were brought to the fluorometric imaging plate reader (FLIPR®) and 20 μL of the diluted compounds were transferred to the cell plates by the FLIPR®. Plates were then incubated for 1 hour at room temperature. […] During the assay, fluorescence readings were taken simultaneously from all 384 wells of the cell plate every 1.5 seconds. Five readings were taken to establish a stable baseline, then 20 μL of sample was rapidly (30 μL/sec) and simultaneously added to each well of the cell plate. The fluorescence was continuously monitored before, during and after sample addition for a total elapsed time of 100 seconds. Responses (increase in peak fluorescence) in each well following agonist addition were determined. The initial fluorescence reading from each well, prior to ligand stimulation, was used as a zero baseline value for the data from that well. The responses were expressed as % inhibition of the buffer control.
For orientation: Calcium flux is commonly read through the fluorescence of an indicator in the cells.
A word on the IC50: it is the concentration at which inhibition is half-maximal. For `Cc1c(CC(=O)O)cc2ccc(Cl)cc2c1-c1ccc(S(=O)(=O)c2cc(Cl)cc(Cl)c2)cc1` [Example 26, {6-Chloro-4-[4-(3,5-dichloro-benzenesulfonyl)-phenyl]-3-methyl-naphthalen-2-yl}-acetic acid], the IC50 amounted to 22.1 nM.

As to `CCN(CC)S(=O)(=O)c1ccc(-c2c(C)c(CC(=O)O)cc3ccc(Cl)cc23)cc1` [Example 35, [6-Chloro-4-(4-diethylsulfamoyl-phenyl)-3-methyl-naphthalen-2-yl]-acetic acid], the half-maximal inhibitory concentration (IC50) came to 0.5 nM.

`Cc1c(CC(=O)O)cc2ccc(F)cc2c1-c1ccc(S(=O)(=O)c2ccc(OC(F)(F)F)cc2)cc1` [Example 7, {6-Fluoro-3-methyl-4-[4-(4-trifluoromethoxy-benzenesulfonyl)-phenyl]-naphthalen-2-yl}-acetic acid]: the 50% inhibitory concentration (IC50) is 15.8 nM.

`Cc1c(CC(=O)O)cc2ccc(Cl)cc2c1-c1ccc(S(=O)(=O)NCCO)cc1` [Example 56, {6-Chloro-4-[4-(2-hydroxy-ethylsulfamoyl)-phenyl]-3-methyl-naphthalen-2-yl}-acetic acid]: the IC50 amounted to 5.6 nM.

Regarding `Cc1c(CC(=O)O)cc2ccc(F)cc2c1-c1ccc(S(=O)(=O)Nc2cccc(Cl)c2)cc1` [Example 45, {4-[4-(3-Chloro-phenylsulfamoyl)-phenyl]-6-fluoro-3-methyl-naphthalen-2-yl}-acetic acid], the IC50 came to 1.5 nM.

Regarding `Cc1c(CC(=O)O)cc2ccc(Cl)cc2c1-c1ccc(S(=O)(=O)c2cc(F)cc(F)c2)cc1` [Example 27, {6-Chloro-4-[4-(3,5-difluoro-benzenesulfonyl)-phenyl]-3-methyl-naphthalen-2-yl}-acetic acid], the half-inhibitory concentration (IC50) came to 0.7 nM.

Regarding `Cc1c(CC(=O)O)cc2ccc(F)cc2c1-c1ccc(S(=O)(=O)NCCO)cc1` [Example 57, {6-Fluoro-4-[4-(2-hydroxy-ethylsulfamoyl)-phenyl]-3-methyl-naphthalen-2-yl}-acetic acid], the IC50 stood at 6.1 nM.

In the case of `COc1ccc(CN(C(C)C)S(=O)(=O)c2ccc(-c3c(C)c(CC(=O)O)cc4ccc(F)cc34)cc2)cc1` [Example 53, (6-Fluoro-4-{4-[isopropyl-(4-methoxy-benzyl)-sulfamoyl]-phenyl}-3-methyl-naphthalen-2-yl)-acetic acid], the IC50 was determined as 1.3 nM.

On to `Cc1c(CC(=O)O)cc2ccc(F)cc2c1-c1ccc(S(=O)(=O)c2cc(F)cc(F)c2)cc1` [Example 14, {4-[4-(3,5-Difluoro-benzenesulfonyl)-phenyl]-6-fluoro-3-methyl-naphthalen-2-yl}-acetic acid], for which the IC50 was found to be 1.6 nM.

On to `Cc1c(CC(=O)O)cc2ccc(Cl)cc2c1-c1ccc(S(=O)(=O)c2ccc(F)cc2F)cc1` [Example 23, {6-Chloro-4-[4-(2,4-difluoro-benzenesulfonyl)-phenyl]-3-methyl-naphthalen-2-yl}-acetic acid], for which the 50% inhibitory concentration (IC50) is 2.3 nM.

As for `Cc1c(CC(=O)O)cc2ccc(Cl)cc2c1-c1ccc(S(=O)(=O)c2cc(Cl)ccc2Cl)cc1` [Example 22, {6-Chloro-4-[4-(2,5-dichloro-benzenesulfonyl)-phenyl]-3-methyl-naphthalen-2-yl}-acetic acid], the half-inhibitory concentration (IC50) amounted to 4.4 nM.

As to `Cc1c(CC(=O)O)cc2ccc(F)cc2c1-c1ccc(S(=O)(=O)NC(C)C)cc1` [Example 50, [6-Fluoro-4-(4-isopropylsulfamoyl-phenyl)-3-methyl-naphthalen-2-yl]-acetic acid], the 50% inhibitory concentration (IC50) came out at 1.7 nM.

For the compound `Cc1c(CC(=O)O)cc2ccc(F)cc2c1-c1ccc(S(=O)(=O)c2ccccc2Cl)cc1` [Example 2, {4-[4-(2-Chloro-benzenesulfonyl)-phenyl]-6-fluoro-3-methyl-naphthalen-2-yl}-acetic acid], the half-maximal inhibitory concentration (IC50) is 0.7 nM.

For the compound `Cc1c(CC(=O)O)cc2ccc(Cl)cc2c1-c1ccc(S(=O)(=O)c2c(F)cccc2F)cc1` [Example 24, {6-Chloro-4-[4-(2,6-difluoro-benzenesulfonyl)-phenyl]-3-methyl-naphthalen-2-yl}-acetic acid], the IC50 was determined as 312 nM.

Consider `Cc1c(CC(=O)O)cc2ccc(Cl)cc2c1-c1ccc(S(=O)(=O)Nc2cccc(Cl)c2)cc1` [Example 32, {6-Chloro-4-[4-(3-chloro-phenylsulfamoyl)-phenyl]-3-methyl-naphthalen-2-yl}-acetic acid], for which the IC50 turned out to be 4.7 nM.

As for `Cc1c(CC(=O)O)cc2ccc(F)cc2c1-c1ccc(S(=O)(=O)c2c(F)cccc2F)cc1` [Example 11, {4-[4-(2,6-Difluoro-benzenesulfonyl)-phenyl]-6-fluoro-3-methyl-naphthalen-2-yl}-acetic acid], the IC50 is 1.2 nM.

In the case of `Cc1c(CC(=O)O)cc2ccc(Cl)cc2c1-c1ccc(S(=O)(=O)NC(C)C)cc1` [Example 37, [6-Chloro-4-(4-isopropylsulfamoyl-phenyl)-3-methyl-naphthalen-2-yl]-acetic acid], the IC50 is 1.5 nM.

In the case of `COc1ccc(CNS(=O)(=O)c2ccc(-c3c(C)c(CC(=O)O)cc4ccc(F)cc34)cc2)cc1` [Example 52, {6-Fluoro-4-[4-(4-methoxy-benzylsulfamoyl)-phenyl]-3-methyl-naphthalen-2-yl}-acetic acid], the IC50 worked out at 3.2 nM.

For the compound `Cc1c(CC(=O)O)cc2ccc(F)cc2c1-c1ccc(S(=O)(=O)c2cccc(Cl)c2)cc1` [Example 3, {4-[4-(3-Chloro-benzenesulfonyl)-phenyl]-6-fluoro-3-methyl-naphthalen-2-yl}-acetic acid], the 50% inhibitory concentration (IC50) turned out to be 3.9 nM.

In the case of `Cc1c(CC(=O)O)cc2ccc(F)cc2c1-c1ccc(S(=O)(=O)c2ccc(F)cc2F)cc1` [Example 10, {4-[4-(2,4-Difluoro-benzenesulfonyl)-phenyl]-6-fluoro-3-methyl-naphthalen-2-yl}-acetic acid], the IC50 was found to be 1.2 nM.

Consider `Cc1c(Cl)cccc1NS(=O)(=O)c1ccc(-c2c(C)c(CC(=O)O)cc3ccc(F)cc23)cc1` [Example 44, {4-[4-(3-Chloro-2-methyl-phenylsulfamoyl)-phenyl]-6-fluoro-3-methyl-naphthalen-2-yl}-acetic acid], for which the half-inhibitory concentration (IC50) worked out at 0.9 nM.

With `Cc1c(CC(=O)O)cc2ccc(F)cc2c1-c1ccc(S(=O)(=O)N2CCCCC2)cc1` [Example 47, {6-Fluoro-3-methyl-4-[4-(piperidine-1-sulfonyl)-phenyl]-naphthalen-2-yl}-acetic acid], the IC50 came out at 4.1 nM.

Consider `Cc1c(CC(=O)O)cc2ccc(F)cc2c1-c1ccc(S(=O)(=O)NCc2ccccc2)cc1` [Example 51, [4-(4-Benzylsulfamoyl-phenyl)-6-fluoro-3-methyl-naphthalen-2-yl]-acetic acid], for which the 50% inhibitory concentration (IC50) was 0.4 nM.

Take `Cc1c(CC(=O)O)cc2ccc(F)cc2c1-c1ccc(S(=O)(=O)NC2CCCCC2)cc1` [Example 49, [4-(4-Cyclohexylsulfamoyl-phenyl)-6-fluoro-3-methyl-naphthalen-2-yl]-acetic acid]: the IC50 was found to be 1.5 nM.

Turning to `Cc1c(CC(=O)O)cc2ccc(Cl)cc2c1-c1ccc(S(=O)(=O)c2cccc(Cl)c2)cc1` [Example 16], the half-inhibitory concentration (IC50) came out at 8.1 nM.

Regarding `Cc1c(CC(=O)O)cc2ccc(F)cc2c1-c1ccc(S(=O)(=O)N2CCCC2)cc1` [Example 46, {6-Fluoro-3-methyl-4-[4-(pyrrolidine-1-sulfonyl)-phenyl]-naphthalen-2-yl}-acetic acid], the IC50 amounted to 0.7 nM.

Turning to `CCN(CC)S(=O)(=O)c1ccc(-c2c(C)c(CC(=O)O)cc3ccc(F)cc23)cc1` [Example 48, [4-(4-Diethylsulfamoyl-phenyl)-6-fluoro-3-methyl-naphthalen-2-yl]-acetic acid], the IC50 was determined as 1.8 nM.

Take `Cc1c(CC(=O)O)cc2ccc(F)cc2c1-c1ccc(S(=O)(=O)c2ccccc2C(F)(F)F)cc1` [Example 5, {6-Fluoro-3-methyl-4-[4-(2-trifluoromethyl-benzenesulfonyl)-phenyl]-naphthalen-2-yl}-acetic acid]: the concentration for half-maximal inhibition (IC50) was 1.3 nM.
